Experimental findings from patent US8809341B2, “2,4-pyrimidinediamine compounds and uses as anti-proliferative agents” (Rigel Pharmaceuticals, Inc., priority 2003, dated 2014) are described below.

Like-named read-outs stand apart in the source and are kept apart here.

The test system of one assay is H1299 cells. Put plainly: in vitro antiproliferation assay, H1299 (lung). It is filed as cell-based. Particulars: IC50 class against H1299 (lung) tumor cells. The essentials:
(§1)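 Standard in vitro antiproliferation assays on tumour cell lines, including A549 and H1299 (both lung); IC50 values determined.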

For another assay, the system named is SKMEL28. The assay is described as follows: in vitro antiproliferation assay, SKMEL28 (breast/p53mut). The class given is cell-based. The protocol:
(§2) The IC50 values of various compounds against a various different tumor cell lines were determined using standard in vitro antiproliferation assays. The tumor cell lines tested were as follows: A549 (lung); H1299 (lung), ACHN (kidney/p53 wt), CAKI (renal cell carcinoma), NCI-H460 (lung); HCT116 (colon/p53w0; HELA (cervix/p53 wt), HUH7 (liver/p53 wt), HUVEC (primary endothelial), LNCAP (prostate), HT-29 (colon); MCF-7 (breast); MCF-7 (breast/ER positive), MDA MB435S (breast); MDA MB231 (breast/ER negative), DU145 (prostate); BxPC-3 (pancreatic); SKOV-3 (ovarian); HepG2 (hepatic), NDHF primary normal human dermal fibroblast), SKMEL28 (breast/p53mut), SKMEL5 (breast/p53 wt), U20S (bone) and PC3 (prostate). […] A blank indicates the specified compound was not tested against the specified cell line.
(§3) Many of the compounds were tested against other cell lines. Their activity is reported in TABLE 15, below, where +”, “−”, “−/+” or “+/−” values are as described for TABLES 1-14. Where the cell line includes a value in a parenthetical, the value indicates the seeding density at which the assay was performed

In the next assay the test system is HUVEC. The assay is described as follows: in vitro antiproliferation assay, HUVEC (primary endothelial). The class given is cell-based. The method, then:
as §2, §3

The subject of the next assay is U20S. Put plainly: in vitro antiproliferation assay, U20S (bone). It is filed as cell-based. The protocol:
as §2, §3

The next assay relates to SKMEL5. Put plainly: in vitro antiproliferation assay, SKMEL5. The class given is cell-based. The protocol: as §2, §3
In another assay the test system is HELA. The assay is described as follows: in vitro antiproliferation assay, HELA (cervix/p53 wt). The class given is cell-based. The method, then: as §2, §3
For another assay, the system named is MDA MB231. Put plainly: in vitro antiproliferation assay, MDA MB231 (breast/ER negative). The class given is cell-based. The protocol:
as §2, §3

The subject of a further assay is HUH7. The assay is described as follows: in vitro antiproliferation assay, HUH7 (liver/p53 wt). The class given is cell-based. The protocol: as §2, §3
The next assay has as its system LNCAP. The assay is described as follows: in vitro antiproliferation assay, LNCAP (prostate). The class given is cell-based. The protocol: as §2, §3
The test system of a further assay is ACHN. Put plainly: in vitro antiproliferation assay, ACHN (kidney/p53 wt). It is filed as cell-based. The method, then:
as §2, §3

The next assay concerns MCF-7. Put plainly: in vitro antiproliferation assay, MCF-7 (breast/ER positive). It is filed as cell-based. The protocol:
as §2, §3

A further assay has as its system A549 cells. The assay is described as follows: in vitro antiproliferation assay, A549 (lung). Particulars: IC50 class against A549 (lung) tumor cells. The class given is cell-based. Put shortly: as §1
Another assay has as its system CAKI. Put plainly: in vitro antiproliferation assay, CAKI (renal cell carcinoma). The class given is cell-based. The method, then:
as §2, §3

The next assay concerns NDHF. The assay is described as follows: in vitro antiproliferation assay, NDHF (primary normal human dermal fibroblast). The class given is cell-based. The protocol:
as §2, §3

The next assay relates to HCT116. The assay is described as follows: in vitro antiproliferation assay, HCT116 (colon). The class given is cell-based. Particulars: HCT116 (colon), read-out: HCT116. Put shortly: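 Cells were seeded, at the density shown in parentheses where one is given, and exposed to compound in a standard in vitro antiproliferation assay, from which IC50 was determined.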
Assay [1] concerns tumors generated from A549 cells. The assay is described as follows: in vivo xenograft experiment, tumors generated from A549 cells. Particulars: mice. The method, then: Compounds 107, 858, 164, 211 and 156 were tested for their ability to shrink tumors generated from A549 cells in standard xenograft experiments. Compounds 141 and 211 were tested against H1299 tumors.

As to `COC(=O)N1CCN(c2ccc(Nc3ncc(F)c(NC4CCC4)n3)cc2)CC1` [compound 107], the IC50 in the assay on H1299 cells, in the assay on SKMEL28, in the assay with HUVEC, with U20S, with SKMEL5 and in the assay with HELA was not above 20 µM in each case. Further, the IC50 is not above 20 µM in the assay with MDA MB231 (MDA-MB-231, seeding density 2K, read-out: MDA-MB-231(2K)); not above 20 µM with MDA MB231 (MDA-MB-231, seeding density 4K, read-out: MDA-MB-231(4K)); not above 20 µM in the assay on HUH7; not above 20 µM with LNCAP; not above 20 µM with ACHN; not above 20 µM with MCF-7 (MCF7, seeding density 2K, read-out: MCF7(2K)). The IC50 with MCF-7 (MCF7, seeding density 4K, read-out: MCF7(4K)) was not above 20 µM; with A549 cells, not above 20 µM; with CAKI, not above 20 µM; in the assay with NDHF, not above 20 µM; in the assay with HCT116 it was more than 20 µM.
As for `CN1CCN(c2ccc(Nc3ncc(F)c(NC4CCCCC4)n3)cc2)CC1.Cl` [compound 156], the “Preliminary Results: reduction in tumor size” value in [1] (50 mg/kg Bid, daily, 0.9% Saline) is 60.4%.
`Fc1cnc(Nc2cccc(-c3ncco3)c2)nc1Nc1cc(C2CC2)[nH]n1` [compound 211]: in [1] (25 mg/kg bid, 100% DMSO), the “Preliminary Results: reduction in tumor size” value is recorded as 23.2%. The IC50 was not above 20 µM in the assay on H1299 cells (Homo sapiens, NCI-H1299); not above 20 µM with HELA (Homo sapiens); not above 20 µM with MDA MB231 (Homo sapiens, MDA-MB-231, seeding density 2K, read-out: MDA-MB-231(2K)); not above 20 µM in the assay on MDA MB231 (Homo sapiens, MDA-MB-231, seeding density 4K, read-out: MDA-MB-231(4K)); not above 20 µM in the assay with MCF-7 (Homo sapiens, MCF7, seeding density 2K, read-out: MCF7(2K)); not above 20 µM in the assay with MCF-7 (Homo sapiens, MCF7, seeding density 4K, read-out: MCF7(4K)). The IC50 with A549 cells (Homo sapiens) was not above 20 µM; in the assay with HCT116 (Homo sapiens, HCT-116) it was not above 20 µM.
